Results taken from paper PMC8351955, “Targeting Mycobacterium tuberculosis response to environmental cues for the development of effective antitubercular drugs” (PLoS Biology, 2021).
Read-outs that look alike come from different tables or passages of the source.

Experiments:
Assay in all cases: microbe, parasite or virus in culture
Format in all cases: cell-based, Mycobacterium tuberculosis
[1] = tested on: CDC1551(rv2390c′::GFP) reporter Mtb strain, response to high [Cl−]; details: for activity at 10 µM / activity at 20 µM / IC50: Mycobacterium tuberculosis; for activity at 10 µM / activity at 20 µM: 144 h; for activity at 20 µM: read-out: rv2390c'::GFP validation assay NPA% at 20 µM compound; for IC50: read-out: ShuminTan.MtbChloride.Validation: IC50; for ShuminTan.MtbChloride.Primary: NPI%: primary screen, Sheet2
[2] = tested on: CDC1551(rv1405c′::GFP) reporter Mtb strain; details: for activity at 10 µM / activity at 20 µM / IC50: Mycobacterium tuberculosis; for activity at 10 µM: read-out: rv1405c'::GFP secondary assay NPA% at 10 µM compound; for activity at 20 µM: read-out: rv1405c'::GFP secondary assay NPA% at 20 µM compound; for IC50: read-out: ShuminTan.MtbChloride.Secondary: IC50
[3] = tested on: Mtb growth in J774 murine macrophage-like cells; details: for NPI (Mtb growth in J774 cells), average: Fig 1F; for inhibition at 10 µM / inhibition at 20 µM / IC50: Mycobacterium tuberculosis; for inhibition at 10 µM: read-out: J774 tertiary assay % inhibition compared to Rif at 10 µM compound; for IC50: J774 dose response 0.039-20 µM, read-out: ShuminTan.Mtb.Validation.Macrophage: IC50
[4] = pH 6.4, […], DMSO positive control = 100%, read-out: Primary screen rv2390c'::GFP NPA%
[5] = 10 µM, pH 6.4, 250 mM NaCl, 6 days, read-out: rv2390c'::GFP validation assay NPA% at 10 µM compound
[6] = 0.078125 µM, 5 µM rifampicin = 100% inhibition
[7] = J774, 144 h, read-out: J774 tertiary assay % inhibition compared to Rif at 20 µM compound
[8] = J774, read-out: %inhibition compared to Rif in J774 at 20 uM

Row | SMILES | activity at 10 µM [1, 4] | activity at 10 µM [1, 5] | activity at 20 µM ([1]; pH 6.4, 250 mM NaCl, 6 days) | activity at 10 µM [2] | activity at 20 µM [2] | NPI (Mtb growth in J774 cells), average [3, 6] | NPI (Mtb growth in J774 cells), average ([3]; 0.15625 µM) | NPI (Mtb growth in J774 cells), average ([3]; 0.3125 µM) | NPI (Mtb growth in J774 cells), average ([3]; 0.625 µM) | NPI (Mtb growth in J774 cells), average ([3]; 1.25 µM) | NPI (Mtb growth in J774 cells), average ([3]; 2.5 µM) | NPI (Mtb growth in J774 cells), average ([3]; 5 µM) | NPI (Mtb growth in J774 cells), average ([3]; 10 µM) | NPI (Mtb growth in J774 cells), average ([3]; 20 µM) | inhibition at 10 µM ([3]; J774, 144 h) | inhibition at 20 µM [3, 7] | validation NPI at 10 uM [1] | validation NPI at 20 uM [1] | IC50 [1] | ShuminTan.MtbChloride.Primary: NPI% [1] | other results
1 | O=C(c1cnn2ccccc12)N1CCCC(CCc2cccc(C(F)(F)F)c2)C1 (stereo not shown) [C5 analog, FC(F)(F)C1=CC=CC(CCC2CCCN(C2)C(=O)C2=C3C=CC=CN3N=C2)=C1] | 167% | 112 ± 12% | 156 ± 9.9% | 110 ± 7.2% | 150 ± 12% | -4.805% | -8.165% | -7.245% | 7.86% | -0.385% | 11.205% | 9.965% | 21.35% | 48.15% | 21.4 ± 7.7% | 48.2 ± 1.5% |  |  |  |  | 
2 | CCCSc1ncc(CN2CCN(c3ncnc4[nH]cnc34)CC2)cn1 [C6 analog, CCCSC1=NC=C(CN2CCN(CC2)C2=NC=NC3=C2N=CN3)C=N1] | 153% | 124 ± 10.1% | 158 ± 6.1% | 151 ± 6.4% | 154 ± 8.1% | -6.22% | 3.8025% | 9.675% | 16.75% | 32.05% | 36.55% | 46.75% | 41.15% | 53.2% | 41.2 ± 0.6% | 53.2 ± 1.6% |  |  |  |  | 
3 | Cc1c(Cl)cccc1S(=O)(=O)Nc1nn(C(C)(C)C)cc1C#N [RU-0208737, CC1=C(C=CC=C1Cl)S(=O)(=O)NC1=NN(C=C1C#N)C(C)(C)C] | 47.8% | 53.8 ± 2.8% | 40.2 ± 8.5% | 50.8 ± 1.7% | 84.4 ± 13.1% |  |  |  |  |  |  |  |  |  | 9.6 ± 0.7% | 20.9 ± 6.9% |  |  |  |  | 
4 | CCOc1ccc(OCCN(CC)CC(O)c2ccc(C)cc2)cc1 (stereo not shown) [RU-0211290, CCOC1=CC=C(OCCN(CC)CC(O)C2=CC=C(C)C=C2)C=C1] | 152% | 111 ± 8.9% | 145 ± 8.4% | 102 ± 6.3% | 128 ± 6% |  |  |  |  |  |  |  |  |  |  |  | 111 | 146 | < 39.1 nM | 152.309% | rv1405c assay NPI at 10 uM [2]: 103; rv1405c assay NPI at 20 uM [2]: 129; IC50 [2]: < 39.1 nM; inhibition at 20 µM [3, 8]: 17.1%; IC50 [3]: > 20000 nM
5 | O=S1(=O)CC(S(=O)(=O)Nc2ccccc2-c2cccs2)c2ccccc21 (stereo not shown) [RU-0214604, O=S(=O)(NC1=C(C=CC=C1)C1=CC=CS1)C1CS(=O)(=O)C2=C1C=CC=C2] | 183% | 145 ± 12% | 161 ± 3.2% | 179 ± 26.5% | 213 ± 23.6% |  |  |  |  |  |  |  |  |  |  |  | 146 | 162 | < 39.1 nM | 183.08% | rv1405c assay NPI at 10 uM [2]: 181; rv1405c assay NPI at 20 uM [2]: 212; IC50 [2]: < 39.1 nM; inhibition at 20 µM [3, 8]: 14.8%; IC50 [3]: > 20000 nM
6 | CCc1nc(Cn2ccnc2-c2nc3c(s2)CCCC3)no1 [RU-0226010, CCC1=NC(CN2C=CN=C2C2=NC3=C(CCCC3)S2)=NO1] | 168% | 125 ± 6.6% | 129 ± 4% | 92.3 ± 12.5% | 104 ± 23.1% |  |  |  |  |  |  |  |  |  |  | 30.4 ± 2.4% |  |  |  |  | 
